# According to patent US20070117770A1, “Human ribosomal DNA (rDNA) and ribosomal RNA (rRNA) nucleic acids and uses thereof” (Cylene Pharmaceuticals, Inc., priority 2005, published 2007):
# Key:
# Assay in all cases: Protein kinase inhibition assay
# Format in all cases: biochemical
# CDK7/cyclinH/MAT1(h) = CDK7/cyclinH/MAT1(h) (Homo sapiens, UniProt P50613); details: read-out: percent residual activity of CDK7/cyclinH/MAT1(h)
# Description: (§1) Certain compounds were tested for activity in protein kinase inhibition assays. All substrates were dissolved and diluted to working stocks in de-ionized water, apart from histone H1 (10× working stock in 20 mM MOPS pH 7.0), PDKtide (10× working stock in 50 mM Tris pH 7.0) ATF2 (which is typically stored at a 20× working stock in 50 mM Tris pH 7.5, 150 mM NaCl, 0.1 mM EGTA, 0.03% Brij-35, 50% glycerol, 1 mM benzamidine, 0.2 mM PMSF and 0.1% R-mercaptoethanol), KKLNRTLSFAEPG (SEQ ID NO:203) and RRRLSFAEPG (SEQ ID NO:204) (50 mM HEPES pH 7.4) and GGEEEEYFELVKKKK (SEQ ID NO:205) (20 mM MOPS pH 7.0). All kinases were pre-diluted to a 10× working concentration prior to addition into the assay. The composition of the dilution buffer for each kinase is detailed below.
# (§2) In a final reaction volume of 25 μl, CDK7/cyclinH/MAT1 (h) (5-10 mU) is incubated with 8 mM MOPS pH 7.0, 0.2 mM EDTA, 500 μM peptide, 10 mM MgAcetate and [y-33P-ATP] (specific activity approx. 500 cpm/pmol, concentration as required). The reaction is initiated by the addition of the MgATP mix. After incubation for 40 minutes at room temperature, the reaction is stopped by the addition of 5 μl of a 3% phosphoric acid solution. 10 μl of the reaction is then spotted onto a P30 filtermat and washed three times for 5 minutes in 75 mM phosphoric acid and once in methanol prior to drying and scintillation counting.
# PKBβ(h) = PKBβ(h) (Homo sapiens, UniProt P31751); details: read-out: percent residual activity of PKBβ(h)
# PKBβ(h), sequence (P31751 whole entry): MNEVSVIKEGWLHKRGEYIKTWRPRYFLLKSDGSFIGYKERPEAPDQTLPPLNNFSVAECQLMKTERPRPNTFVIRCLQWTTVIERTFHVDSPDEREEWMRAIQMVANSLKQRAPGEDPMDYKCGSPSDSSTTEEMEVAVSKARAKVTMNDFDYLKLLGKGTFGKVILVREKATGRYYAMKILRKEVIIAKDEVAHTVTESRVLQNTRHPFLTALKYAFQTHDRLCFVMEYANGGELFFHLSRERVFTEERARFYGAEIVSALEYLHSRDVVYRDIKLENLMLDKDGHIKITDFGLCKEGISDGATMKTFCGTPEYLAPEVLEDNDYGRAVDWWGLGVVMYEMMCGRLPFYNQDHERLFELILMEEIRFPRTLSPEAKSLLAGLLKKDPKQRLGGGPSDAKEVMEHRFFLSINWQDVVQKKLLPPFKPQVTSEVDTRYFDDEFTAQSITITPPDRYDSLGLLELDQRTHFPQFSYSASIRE
# Description: as §1
# as §2, with “μl, PKBβ” for “μl, CDK7/cyclinH/MAT1”, “EDTA, 30” for “EDTA, 500”, “μM GRPRTSSFAEGKK (SEQ ID NO:232),” for “μM peptide,”, “and [gamma-33P-ATP]” for “and [y-33P-ATP]”
# PAK6(h) = PAK6(h) (Homo sapiens, UniProt Q9NQU5); details: read-out: percent residual activity of PAK6(h)
# PAK6(h), sequence (Q9NQU5 whole entry): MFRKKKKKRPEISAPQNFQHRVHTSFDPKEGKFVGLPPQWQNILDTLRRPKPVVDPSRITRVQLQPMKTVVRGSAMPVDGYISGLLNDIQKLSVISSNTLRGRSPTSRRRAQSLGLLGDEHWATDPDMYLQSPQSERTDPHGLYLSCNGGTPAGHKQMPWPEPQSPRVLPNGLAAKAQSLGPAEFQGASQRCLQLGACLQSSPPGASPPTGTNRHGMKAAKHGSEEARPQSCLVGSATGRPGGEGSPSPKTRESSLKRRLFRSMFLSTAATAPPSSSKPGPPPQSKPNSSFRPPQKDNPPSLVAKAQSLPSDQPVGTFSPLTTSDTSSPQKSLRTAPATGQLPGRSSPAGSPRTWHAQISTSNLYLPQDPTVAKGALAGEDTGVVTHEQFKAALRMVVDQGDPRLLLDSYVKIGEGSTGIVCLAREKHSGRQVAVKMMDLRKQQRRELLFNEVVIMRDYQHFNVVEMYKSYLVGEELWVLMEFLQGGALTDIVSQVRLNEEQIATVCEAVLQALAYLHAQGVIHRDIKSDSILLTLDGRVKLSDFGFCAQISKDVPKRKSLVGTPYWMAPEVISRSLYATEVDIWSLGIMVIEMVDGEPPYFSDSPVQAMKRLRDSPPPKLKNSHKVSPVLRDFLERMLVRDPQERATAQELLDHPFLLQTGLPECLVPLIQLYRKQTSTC
# Description: as §1
# as §2, with “μl, PAK6” for “μl, CDK7/cyclinH/MAT1”, “EDTA, 200” for “EDTA, 500”, “μM RRRLSFAEPG (SEQ ID NO:223),” for “μM peptide,”
# HIPK2(h) = HIPK2(h) (Homo sapiens, UniProt Q9H2X6); details: read-out: percent residual activity of HIPK2(h)
# HIPK2(h), sequence (Q9H2X6 whole entry): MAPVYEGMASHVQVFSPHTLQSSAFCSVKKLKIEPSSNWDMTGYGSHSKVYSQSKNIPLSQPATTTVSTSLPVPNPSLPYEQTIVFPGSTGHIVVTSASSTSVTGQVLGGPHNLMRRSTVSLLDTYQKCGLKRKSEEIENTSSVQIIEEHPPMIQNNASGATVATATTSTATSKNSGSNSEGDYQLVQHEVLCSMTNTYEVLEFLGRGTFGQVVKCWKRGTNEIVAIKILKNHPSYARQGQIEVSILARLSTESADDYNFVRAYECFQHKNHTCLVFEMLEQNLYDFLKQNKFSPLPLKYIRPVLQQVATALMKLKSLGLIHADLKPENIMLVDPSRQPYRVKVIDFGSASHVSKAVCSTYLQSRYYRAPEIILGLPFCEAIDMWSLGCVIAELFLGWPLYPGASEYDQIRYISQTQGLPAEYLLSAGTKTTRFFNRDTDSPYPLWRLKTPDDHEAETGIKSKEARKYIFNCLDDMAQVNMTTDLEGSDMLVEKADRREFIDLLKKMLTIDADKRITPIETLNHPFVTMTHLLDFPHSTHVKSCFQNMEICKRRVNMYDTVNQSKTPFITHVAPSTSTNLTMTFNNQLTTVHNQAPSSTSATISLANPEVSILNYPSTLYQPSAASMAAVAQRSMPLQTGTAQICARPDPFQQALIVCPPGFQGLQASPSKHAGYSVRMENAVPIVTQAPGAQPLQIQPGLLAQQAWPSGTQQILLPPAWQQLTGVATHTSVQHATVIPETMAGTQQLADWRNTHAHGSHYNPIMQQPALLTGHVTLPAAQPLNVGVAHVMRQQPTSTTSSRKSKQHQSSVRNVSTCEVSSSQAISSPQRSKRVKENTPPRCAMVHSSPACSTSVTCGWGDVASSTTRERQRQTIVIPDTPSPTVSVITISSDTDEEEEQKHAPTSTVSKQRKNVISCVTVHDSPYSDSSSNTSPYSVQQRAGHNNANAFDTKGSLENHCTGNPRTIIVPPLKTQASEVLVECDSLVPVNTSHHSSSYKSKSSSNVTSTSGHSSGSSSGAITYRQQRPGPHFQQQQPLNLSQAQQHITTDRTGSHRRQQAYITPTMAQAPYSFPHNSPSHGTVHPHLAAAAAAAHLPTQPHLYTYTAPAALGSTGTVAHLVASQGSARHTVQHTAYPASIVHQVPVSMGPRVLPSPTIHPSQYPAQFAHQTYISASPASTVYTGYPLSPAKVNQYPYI
# Description: as §1
# as §2, with “HIPK2” for “CDK7/cyclinH/MAT1”, “0.33 mg/ml myelin basic protein,” for “500 μM peptide,”, “[gamma-33P-ATP]” for “[y-33P-ATP]”, “filtermat” for “filtermat and”
# PKCη(h) = PKCη(h) (Homo sapiens, UniProt P24723); details: read-out: percent residual activity of PKCη(h)
# PKCη(h), sequence (P24723 whole entry): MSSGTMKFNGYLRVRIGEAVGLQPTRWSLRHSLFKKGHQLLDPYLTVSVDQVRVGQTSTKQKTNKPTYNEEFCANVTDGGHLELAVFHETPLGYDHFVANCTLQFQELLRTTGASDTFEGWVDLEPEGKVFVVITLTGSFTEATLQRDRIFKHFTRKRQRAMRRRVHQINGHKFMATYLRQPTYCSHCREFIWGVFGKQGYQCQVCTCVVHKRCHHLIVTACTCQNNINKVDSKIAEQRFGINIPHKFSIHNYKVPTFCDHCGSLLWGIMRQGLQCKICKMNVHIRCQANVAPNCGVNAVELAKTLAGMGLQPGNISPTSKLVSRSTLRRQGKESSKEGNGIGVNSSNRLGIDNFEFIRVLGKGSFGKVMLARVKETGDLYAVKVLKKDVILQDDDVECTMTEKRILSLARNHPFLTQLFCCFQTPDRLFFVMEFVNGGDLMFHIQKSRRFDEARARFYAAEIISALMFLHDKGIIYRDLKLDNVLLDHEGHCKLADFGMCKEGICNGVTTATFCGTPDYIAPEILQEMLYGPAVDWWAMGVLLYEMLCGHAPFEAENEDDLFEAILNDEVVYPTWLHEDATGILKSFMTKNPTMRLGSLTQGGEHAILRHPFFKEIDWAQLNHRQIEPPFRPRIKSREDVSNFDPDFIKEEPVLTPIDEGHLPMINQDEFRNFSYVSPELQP
# Description: as §1
# In a final reaction volume of 25 μl, PKCη (h) (5-10 mU) is incubated with 20 mM HEPES pH 7.4, 0.03% Triton X-100, 0.1 mM CaCl2, 0.1 mg/ml phosphatidylserine, 10 μg/ml diacylglycerol, 50 μM ERMRPRKRQGSVRRRV (SEQ ID NO:234), 10 mM MgAcetate and [gamma-33P-ATP] (specific activity approx. 500 cpm/pmol, concentration as required). The reaction is initiated by the addition of the MgATP mix. After incubation for 40 minutes at room temperature, the reaction is stopped by the addition of 5 μl of a 3% phosphoric acid solution. […]
# MST2(h) = MST2(h) (Homo sapiens, UniProt Q13188); details: read-out: percent residual activity of MST2(h)
# MST2(h), sequence (Q13188 whole entry): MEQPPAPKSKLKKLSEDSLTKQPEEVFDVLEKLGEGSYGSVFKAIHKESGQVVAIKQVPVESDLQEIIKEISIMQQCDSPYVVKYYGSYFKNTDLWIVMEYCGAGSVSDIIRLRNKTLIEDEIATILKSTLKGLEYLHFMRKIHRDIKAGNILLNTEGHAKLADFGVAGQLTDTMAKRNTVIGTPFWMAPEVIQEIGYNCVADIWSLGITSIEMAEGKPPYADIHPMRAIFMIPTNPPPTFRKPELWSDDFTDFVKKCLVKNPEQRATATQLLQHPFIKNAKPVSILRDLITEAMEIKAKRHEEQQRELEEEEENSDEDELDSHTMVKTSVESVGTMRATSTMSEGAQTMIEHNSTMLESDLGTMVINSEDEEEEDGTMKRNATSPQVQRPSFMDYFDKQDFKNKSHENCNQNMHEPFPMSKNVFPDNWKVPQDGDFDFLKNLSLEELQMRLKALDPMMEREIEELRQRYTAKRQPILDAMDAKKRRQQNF
# Description: as §1
# as §2, with “MST2” for “CDK7/cyclinH/MAT1”, “0.33 mg/ml myelin basic protein,” for “500 μM peptide,”, “[gamma-33P-ATP]” for “[y-33P-ATP]”
# CDK7/cyclinH/MAT1(h), sequence (P50613 whole entry): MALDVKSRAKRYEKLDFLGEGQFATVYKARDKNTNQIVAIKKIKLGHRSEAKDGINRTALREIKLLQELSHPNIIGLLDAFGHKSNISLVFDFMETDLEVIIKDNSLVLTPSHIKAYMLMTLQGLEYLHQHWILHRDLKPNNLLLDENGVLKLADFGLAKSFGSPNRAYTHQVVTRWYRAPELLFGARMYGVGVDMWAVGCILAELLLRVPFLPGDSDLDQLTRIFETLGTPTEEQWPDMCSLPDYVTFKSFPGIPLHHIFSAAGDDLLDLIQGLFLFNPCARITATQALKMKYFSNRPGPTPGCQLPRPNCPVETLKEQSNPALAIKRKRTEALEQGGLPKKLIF
# CDK7/cyclinH/MAT1(h), sequence (P51946 whole entry partner): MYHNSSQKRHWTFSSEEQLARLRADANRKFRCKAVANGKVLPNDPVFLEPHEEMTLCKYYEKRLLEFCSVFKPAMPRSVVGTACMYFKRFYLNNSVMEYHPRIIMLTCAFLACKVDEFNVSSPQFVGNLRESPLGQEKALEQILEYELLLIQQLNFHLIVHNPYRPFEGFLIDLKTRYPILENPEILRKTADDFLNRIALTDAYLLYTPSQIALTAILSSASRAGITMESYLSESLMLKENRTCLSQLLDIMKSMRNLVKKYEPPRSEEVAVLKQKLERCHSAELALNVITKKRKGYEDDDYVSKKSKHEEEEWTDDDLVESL
# CDK7/cyclinH/MAT1(h), sequence (P51948 whole entry partner): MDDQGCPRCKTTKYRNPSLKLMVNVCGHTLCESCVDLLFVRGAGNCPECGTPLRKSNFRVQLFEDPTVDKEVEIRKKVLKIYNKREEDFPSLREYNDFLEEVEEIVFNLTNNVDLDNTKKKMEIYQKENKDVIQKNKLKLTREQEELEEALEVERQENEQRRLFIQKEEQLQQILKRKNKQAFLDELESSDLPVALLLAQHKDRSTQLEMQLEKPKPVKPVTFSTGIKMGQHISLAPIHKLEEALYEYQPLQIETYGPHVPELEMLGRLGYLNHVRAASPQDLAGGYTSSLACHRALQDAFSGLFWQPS
SMILES,remaining activity at 2.5 µM (CDK7/cyclinH/MAT1(h)) [%],remaining activity at 2.5 µM (PKBβ(h)) [%],remaining activity at 2.5 µM (PAK6(h)) [%],remaining activity at 2.5 µM (HIPK2(h)) [%],remaining activity at 2.5 µM (PKCη(h)) [%],remaining activity at 2.5 µM (MST2(h)) [%]
CN1CCCC1CCNC(=O)c1cn2c3c(c(N4CCC(c5cnccn5)C4)c(F)cc3c1=O)Oc1cc3ccccc3cc1-2 (stereo not drawn) [Compound A-1],72,48,123,106,80,76
CC(=O)N1CCN(c2ccc3c(=O)c(C(=O)NCCN4CCCC4)c4n(C)c5ccccc5n4c3n2)CC1 [Compound B-1],95,106,112,111,80,106
